Source: paper PMC8465649, “Semaphorin 3A—Glycosaminoglycans Interaction as Therapeutic Target for Axonal Regeneration” (Pharmaceuticals, 2021)

What was measured:
[1] = NMR competition (WaterLOGSY / spin-lock filtered 1H): displacement of FS2/FS3 peptides from heparin agarose resin; format: binding; conditions: WaterLOGSY; 1:1 peptoid/FS2, both 1 mM; pH 7.5
Method: NMR competition experiments involved the acquisition of 1D-^1H WaterLOGSY or spin-lock filtered NMR spectra. Thus, FS2 peptide is displaced from heparin agarose resin by CSIC02 (1:1 peptoid/FS2, both 1 mM), but not by CSIC03 (Figure S15). […] We reasoned that if CSIC02 was able to interact with GAG and displace FS2/FS3 basic peptides, it may also interfere with SCTWT–heparin interaction. To investigate if CSIC02 could displace SCTWT from heparin dp14 and to define the SCTWT residues affected, 2D NMR ^1H-^15N HSQC CSP experiments were used. Figure 8a illustrates the chemical shift effects of CSIC02 addition to a sample of SCTWT containing dp14 heparin. […] In Figure 8b, we display the chemical shift perturbation of SCTWT NMR spectra in the presence of dp14 and CSIC02. Thus, as the two CSP plots in Figure 4b and Figure 8b were calculated using as reference SCTWT alone in solution, we can compare them directly. […] Moreover, splitting of signals for some residues (R733, R734, and Q735 in the first GAG-binding region) was observed (Figure 8c). This observation is compatible with the presence of different species in slow chemical exchange in solution, with partial detachment of SCTWT from heparin. The amount of CSIC02 used in these experiments can be rationalized considering that the SCTWT has ca. 12 positive charges at neutral pH (Figure S18), while CSIC02 is tricationic. Since the binding is mediated by ionic polar interactions, a large excess of CSIC02 is needed to counterbalance the SCTWT-dp14 binding.
Next, 1D ^1H T1ρ relaxation filtered and WaterLOGSY NMR experiments were acquired at 25 °C on a 500-MHz spectrometer (Varian Inova; Agilent Technologies, Santa Clara, CA, USA) equipped with an AutoX inverse double-resonance probe with a z-shielded pulsed-field gradient coil. The samples were prepared in a 5-mm Wilmad NMR 528-PP tubes with 10 mM Tris-d11 (for peptide/GAG samples) and 150 mM NaCl dissolved in 90% H2O/10% D2O at pH 7.5. All spectra were obtained with a sweep width of 8 kHz and 16,384 acquired data points. The experiments were recorded using the standard pulse sequence in the (WLOGSY_ES) Chempack library, with excitation sculpting to suppress water resonances. For Water-LOGSY experiments, the first water-selective 180° pulse was 25 ms long. The spectra were acquired with 1200 transients and a spin-lock pulse of 50 ms at 3.7 kHz. To phase Water-LOGSY spectra correctly, it is necessary to use an internal reference compound. In our case, the reference is the residual ethanol absorbed/bonded in heparin-agarose resin (this interaction was previously confirmed with T1ρ filtered experiments), which appears as a positively phased signal. […]

[2] = Concentration-dependent 1H NMR and DOSY NMR (aggregation); format: physicochemical; conditions: DOSY NMR and spectra at increasing concentrations
Description: As a simple way to characterize the GAG binding behavior, we applied the method previously described by Jiao et al., using the cationic dye known as methylene blue (MB) in a colorimetric competition assay. To compare with our previous results for SICHI, we performed similar experimental design and data analysis, using the charge excess at 50% of MB displacement (CE50) as the parameter to compare the respective binding abilities. The four peptoids rendered very similar CE50 values (CE50 = 1.5–1.8, Figure 6a), reflecting the equivalent charge states. However, CSIC02 reached saturation (complete MB displacement) with a lower number of equivalents, which can be due to its slightly larger molecular size that may cause a more efficient interference with MB binding. Next, we assessed the integrity and solubility of CSIC02 by NMR. To characterize its tendency to aggregate in aqueous solution, NMR spectra at increasing concentrations were acquired which show the same sharp signals under all conditions (Figure S13). […] Direct binding of CSIC02 to GAGs was qualitatively assessed by specific NMR experiments.
Figure S13. Concentration-dependent NMR spectra of CSIC02 and 1H DOSY NMR spectrum of 0.2 mM CSIC02 in presence of 0.5 mM caffeine. […] The spectra were processed with MNova software and the measured diffusion coefficients from DOSY […]

displacement of FS2 peptide from heparin agarose resin [1]: displaced
Compound: CCN(CC)CCN(CC(=O)N(CCN1CCCC1)CC(=O)N(CCC1CCCN1C)CC(N)=O)C(=O)OCc1ccccc1 (centres unmarked) [CSIC02]
tendency to aggregate in aqueous solution [2]: absence of higher molecular weight aggregates
